Source: publication PMC12723384, “A S180F substitution in D-alanine aminotransferase confers resistance to β-chloro-D-alanine in Staphylococcus aureus” (The Journal of Biological Chemistry, 2025)

Columns and labels:
Type in all cases: biochemical
[1] = biological target: T1, D-alanine aminotransferase (Dat) (Staphylococcus aureus, UniProt A0A0H2XHU6); test: lactate dehydrogenase-coupled assay of pyruvate production from D-alanine, A340
T1 construct: recombinant HIS-tagged wild-type Dat from JE2, expressed from pET28b in E. coli
T1 sequence (A0A0H2XHU6 1-282): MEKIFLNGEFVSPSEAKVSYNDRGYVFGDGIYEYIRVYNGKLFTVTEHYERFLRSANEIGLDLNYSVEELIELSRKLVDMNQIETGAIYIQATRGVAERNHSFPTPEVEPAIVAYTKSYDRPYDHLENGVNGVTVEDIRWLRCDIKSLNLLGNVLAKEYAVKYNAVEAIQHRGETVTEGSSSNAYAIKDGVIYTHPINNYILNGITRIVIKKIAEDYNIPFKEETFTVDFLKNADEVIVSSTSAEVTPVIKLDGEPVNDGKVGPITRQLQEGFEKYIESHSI

[2] = biological target: T2, D-alanine aminotransferase (Dat-S180F) (Staphylococcus aureus, UniProt A0A0H2XHU6, S180F); test: as above
T2 construct: recombinant HIS-tagged Dat-S180F from BCDA1, expressed from pET28b in E. coli
T2 sequence (A0A0H2XHU6 1-282 S180F): T1 sequence (A0A0H2XHU6 1-282)

[3] = biological target: T3, D-alanine aminotransferase (Dat) (Staphylococcus aureus, UniProt Q5HF24); test: lactate dehydrogenase-coupled assay, turnover of […] D-alanine to pyruvate
T3 construct: recombinant HIS-tagged wild-type Dat

SMILES | IC50 [1] | IC50 [2] | lactate dehydrogenase-coupled assay, turnover of 25 mM D-alanine to pyruvate [3]
N[C@H](CCl)C(=O)O [BCDA, β-chloro-D-alanine] | 96.8 ± 12 µM | 34 ± 4.7 µM | 
C[C@@H](N)C(=O)O [D-alanine] |  |  | comparison of wild-type Dat (green) and Dat-S180F (violet) enzymatic production of pyruvate from D-alanine
